Experimental findings from patent US9790233B2, “Compositions and methods of modulating 15-PGDH activity” (CASE WESTERN RESERVE UNIVERSITY, priority 2012, dated 2017) are described below.

Like-named read-outs stand apart in the source and are kept apart here.

Holding throughout (format): cell-based
Assay [1] relates to 15-PGDH luciferase fusion construct in LS174T reporter cell line. In words: 15-PGDH-luciferase fusion gene reporter induction, LS174T cells. As to conditions: Homo sapiens.
The subject of assay [2] is 15-PGDH luciferase fusion construct in Vaco503 reporter cell line. Kind of assay: 15-PGDH-luciferase fusion gene reporter induction, V503 cells.
In assay [3] the test system is 15-PGDH luciferase fusion construct in V9m reporter cell line. Kind of assay: 15-PGDH-luciferase fusion gene reporter induction, V9m cells.
Where [4] appears, read: read-out: LS174T reporter activity ([…]), […], % induction over basal level, Table 17, read-out: LS174T reporter activity (2.5 μM).
[5] abbreviates: read-out: lS174T reporter activity ([…]), […], % induction over basal level, Table 17, read-out: lS174T reporter activity (7.5 μM).
The mark [6] stands for this setting: read-out: V503 reporter activity ([…]), […], % induction over basal level, Table 17, read-out: V503 reporter activity (2.5 μM).
The mark [7] stands for this setting: read-out: V503 reporter activity ([…]), […], % induction over basal level, Table 17, read-out: V503 reporter activity (7.5 μM).
The mark [8] stands for this setting: read-out: V9M reporter activity ([…]), […], % induction of luciferase activity over basal level, Table 17, read-out: V9M reporter activity (2.5 μM).
The mark [9] stands for this setting: read-out: V9M reporter activity ([…]), […], % induction over basal level, Table 17, read-out: V9M reporter activity (7.5 μM).
The mark [10] stands for this setting: read-out: Ls174T-SC1 reporter activity, % ([…]), LS174T reporter cells, […] compound, % induction of luciferase activity over basal level, read-out: Ls174T-SC1 reporter activity, % (2.5 μM).
[11] abbreviates: read-out: Ls174T-SC1 reporter activity, % ([…]), LS174T reporter cells, […] compound, % induction of luciferase activity over basal level, read-out: Ls174T-SC1 reporter activity, % (7.5 μM).
Where [12] appears, read: read-out: V503-3H9-7 reporter activity, % ([…]), V503 reporter cells, […] compound, % induction of luciferase activity over basal level, read-out: V503-3H9-7 reporter activity, % (2.5 μM).
Setting [13] is: read-out: V503-3H9-7 reporter activity, % ([…]), V503 reporter cells, […] compound, % induction of luciferase activity over basal level, read-out: V503-3H9-7 reporter activity, % (7.5 μM).
Setting [14] is: read-out: V9M-SC3 Reporter activity ([…]) (%), V9m reporter cells, […] compound, % induction of luciferase activity over basal level, read-out: V9M-SC3 Reporter activity (2.5 μM) (%).
Setting [15] is: read-out: V9M-SC3 Reporter activity ([…]), %, V9m reporter cells, […] compound, % induction of luciferase activity over basal level, read-out: V9M-SC3 Reporter activity (7.5 μM), %.
Where [16] appears, read: read-out: Ls174T-SC1 reporter activity, % ([…]), […], Table 18, read-out: Ls174T-SC1 reporter activity, % (2.5 μM).
Where [17] appears, read: read-out: Ls174T-SC1 reporter activity, % ([…]), […], Table 18, read-out: Ls174T-SC1 reporter activity, % (7.5 μM).
The mark [18] stands for this setting: read-out: V503-3H9-7 reporter activity, % ([…]), […], Table 18, read-out: V503-3H9-7 reporter activity, % (2.5 μM).
The mark [19] stands for this setting: read-out: V503-3H9-7 reporter activity, % ([…]), […], Table 18, read-out: V503-3H9-7 reporter activity, % (7.5 μM).
The mark [20] stands for this setting: read-out: V9M-SC3 Reporter activity ([…]) (%), […], Table 18, read-out: V9M-SC3 Reporter activity (2.5 μM) (%).
The mark [21] stands for this setting: read-out: LS174T reporter activity ([…]), […], % increased luciferase activity over basal level, read-out: LS174T reporter activity (2.5 uM).
Setting [22] is: read-out: LS174T reporter activity ([…]), […], % increased luciferase activity over basal level, read-out: LS174T reporter activity (7.5 uM).
The mark [23] stands for this setting: read-out: V503 reporter activity ([…]), […], % increased luciferase activity over basal level, read-out: V503 reporter activity (2.5 uM).
Where [24] appears, read: read-out: V503 reporter activity ([…]), […], % increased luciferase activity over basal level, read-out: V503 reporter activity (7.5 uM).
The mark [25] stands for this setting: read-out: V9M reporter activity ([…]), […], % increased luciferase activity over basal level, 100 = doubling, read-out: V9M reporter activity (2.5 uM).
Setting [26] is: read-out: V9M reporter activity ([…]), […], % increased luciferase activity over basal level, 100 = doubling, read-out: V9M reporter activity (7.5 uM).

With `CCOC(=O)c1ccc(NC(=O)CN(c2cc(OC)ccc2OC)S(=O)(=O)c2ccc(OC)c(OC)c2)cc1` [compound 1003132], the activation at […] in assay [1] (setting [4]) is 5.16%; in assay [1] (setting [5]) it was 1.73%; in assay [2] (setting [6]), 15.4%; in assay [2] (setting [7]) it was 16.1%; in assay [3] (setting [8]), -5.6%; in assay [3] (setting [9]) it was -0.21%.

In the case of `COc1ccc(OC)c(N(CC(=O)Nc2cnccc2C)S(=O)(=O)c2ccccc2)c1` [SW202967], the activation at […] in assay [1] (setting [10]) is -11.7%; in assay [1] (setting [11]) it was 9.37%; in assay [2] (setting [12]), 34%; in assay [2] (setting [13]) it was 69.6%; in assay [3] (setting [14]), -16%; in assay [3] (setting [15]) it was 0%.

In the case of `COc1ccc(OC)c(N(CC(=O)Nc2cccnc2)S(=O)(=O)c2ccc(C)cc2)c1` [505072−23−1], the activation at […] came out at 101% in assay [1] (setting [16]); 109% in assay [1] (setting [17]); 242% in assay [2] (setting [18]); 239% in assay [2] (setting [19]); 94.7% in assay [3] (setting [20]).

With `COc1ccc(Cl)cc1N(CC(=O)Nc1cccnc1)S(=O)(=O)c1ccccc1` [328012−52−8], the activation at […] in assay [1] (setting [16]) was 128%; in assay [1] (setting [17]) it was 176%; in assay [2] (setting [18]), 243%; in assay [2] (setting [19]), -4.89%; in assay [3] (setting [20]) it was -15.4%.

Consider `COc1ccc(NC(=O)CN(c2ccccc2OC)S(C)(=O)=O)cc1` [compound 920847], for which the activation at […] in assay [1] (setting [4]) is 6.18%; in assay [1] (setting [5]) it was 2.97%; in assay [2] (setting [6]), -4.47%; in assay [2] (setting [7]) it was -10.6%; in assay [3] (setting [8]), 9.26%; in assay [3] (setting [9]), 17.7%.

Take `COc1ccc(OC)c(N(CC(=O)Nc2ccccc2OC)S(=O)(=O)c2ccccc2)c1` [SW202965]: the activation at […] in assay [1] (setting [10]) was -23.5%; in assay [1] (setting [11]), 3.52%; in assay [2] (setting [12]), 23.8%; in assay [2] (setting [13]), 98.1%; in assay [3] (setting [14]) it was -30.9%; in assay [3] (setting [15]), -25.8%.

On to `COc1ccc(S(=O)(=O)N(CC(=O)Nc2ccc(Cl)cc2Cl)c2ccccc2)cc1` [compound 543716], for which the activation at […] in assay [1] (setting [4]) is 3.26%; in assay [1] (setting [5]), -2.08%; in assay [2] (setting [6]), -8.04%; in assay [2] (setting [7]), -8.6%; in assay [3] (setting [8]), 4.2%; in assay [3] (setting [9]), -0.14%.

On to `COc1ccc(OC)c(N(CC(=O)Nc2cccnc2)S(=O)(=O)c2ccc(C)cc2)c1` [SW202939], for which the activation at […] amounted to 75.5% in assay [1] (setting [10]); 166% in assay [1] (setting [11]); 26.6% in assay [2] (setting [12]); 27.3% in assay [2] (setting [13]); 75.3% in assay [3] (setting [14]); 128% in assay [3] (setting [15]).

For `COc1ccc(N(CC(=O)N/N=C/c2cccnc2)S(=O)(=O)c2ccccc2)c(OC)c1` [compound 396087], the activation at […] in assay [1] (setting [4]) was 4.37%; in assay [1] (setting [5]), 10.2%; in assay [2] (setting [6]), 17.2%; in assay [2] (setting [7]), 30.8%; in assay [3] (setting [8]), -8.51%; in assay [3] (setting [9]), 10.1%.

For `NC(=O)c1sc2nc(-c3cccs3)cc(-c3ccc(F)cc3)c2c1N` [compound 980653], the activation at […] in assay [1] (setting [21]) is 5.76%; in assay [1] (setting [22]) it was 11%; in assay [2] (setting [23]) it was -10.5%; in assay [2] (setting [24]), -15.2%; in assay [3] (setting [25]) it was 8.83%; in assay [3] (setting [26]), 12%.

For `CCCC[S+]([O-])c1sc2nc(-c3ccccc3)nc(-c3ccccc3)c2c1N` (stereo not shown) [SW208065, 6-(butylsulfinyl)-2,4-diphenylthieno[2,3-d]pyrimidin-5-amine], the activation at […] came out at 73.5% in assay [1] (setting [21]); 87.7% in assay [1] (setting [22]); 73.5% in assay [2] (setting [23]); 87.7% in assay [2] (setting [24]); 120% in assay [3] (setting [25]); 119% in assay [3] (setting [26]).

For the compound `CCc1ccccc1NC(=O)CN(c1ccc(OC)cc1OC)S(=O)(=O)c1ccccc1` [compound 407572], the activation at […] was 2.22% in assay [1] (setting [4]); 6.94% in assay [1] (setting [5]); 17.2% in assay [2] (setting [6]); 35.9% in assay [2] (setting [7]); -8.45% in assay [3] (setting [8]); -6.12% in assay [3] (setting [9]).

For the compound `COc1ccc(OC)c(N(CC(=O)Nc2cccnc2)S(=O)(=O)c2cccc(C)c2)c1` [SW203684], the activation at […] in assay [1] (setting [10]) is 170%; in assay [1] (setting [11]) it was 119%; in assay [2] (setting [12]), 81.2%; in assay [2] (setting [13]), 52.5%; in assay [3] (setting [14]), 50.7%; in assay [3] (setting [15]), 74.9%.

With `CCOC(=O)c1sc2nc(-c3cccs3)cc(-c3ccccc3)c2c1N` [SW206978, Ethyl 3-amino-4-phenyl-6-(thiophen-2-yl)thieno[2,3-b]pyridine-2-carboxylate], the activation at […] in assay [1] (setting [21]) came to 31.4%; in assay [1] (setting [22]), 26.2%; in assay [2] (setting [23]), 38.8%; in assay [2] (setting [24]), 35.8%; in assay [3] (setting [25]) it was 7.51%; in assay [3] (setting [26]) it was 8.02%.

On to `COc1ccc(OC)c(NC(=O)CN(c2ccccc2)S(=O)(=O)c2cc(Br)ccc2OC)c1` [compound 1002654], for which the activation at […] in assay [1] (setting [4]) is 5.51%; in assay [1] (setting [5]), -1.24%; in assay [2] (setting [6]), 0.78%; in assay [2] (setting [7]) it was 19.2%; in assay [3] (setting [8]), -2.58%; in assay [3] (setting [9]) it was -3.96%.

As for `CCCCC[S+]([O-])c1sc2nc(-c3cccs3)cc(-c3ccccc3)c2c1N` (stereo not shown) [SW208080, 2-(pentylsulfinyl)-4-phenyl-6-(thiophen-2-yl)thieno[2,3-b]pyridin-3-amine], the activation at […] is 118% in assay [1] (setting [21]); 117% in assay [1] (setting [22]); 104% in assay [2] (setting [23]); 127% in assay [2] (setting [24]); 102% in assay [3] (setting [25]); 98.7% in assay [3] (setting [26]).

With `COc1ccccc1N(CC(=O)Nc1ccc(F)c(Cl)c1)S(=O)(=O)c1ccccc1` [compound 537833], the activation at […] in assay [1] (setting [4]) was 4.94%; in assay [1] (setting [5]), 9.04%; in assay [2] (setting [6]), 42.3%; in assay [2] (setting [7]), 73.2%; in assay [3] (setting [8]), -7.54%; in assay [3] (setting [9]), -7.44%.

Turning to `CCc1cccc(CC)c1NC(=O)CN(c1cc(OC)ccc1OC)S(=O)(=O)c1ccc(OC)c(OC)c1` [compound 1003429], the activation at […] was 8.82% in assay [1] (setting [4]); -6.88% in assay [1] (setting [5]); -7.46% in assay [2] (setting [6]); -19.2% in assay [2] (setting [7]); 12.6% in assay [3] (setting [8]); 4.17% in assay [3] (setting [9]).

`CCCNC(=O)c1sc2nc(-c3cccs3)cc(-c3ccccc3)c2c1N` [SW206977, 3-amino-4-phenyl-N-propyl-6-(thiophen-2-yl)thieno[2,3-b]pyridine-2-carboxamide]: the activation at […] in assay [1] (setting [21]) turned out to be 34.9%; in assay [1] (setting [22]), 29.4%; in assay [2] (setting [23]), 33%; in assay [2] (setting [24]) it was 37.6%; in assay [3] (setting [25]) it was 3.5%; in assay [3] (setting [26]), 0.45%.
